Structures are written as SMILES. The source made the active and inactive calls. No cut-off for these calls is given here.

Experiment [1] in a line: Vasorelaxant activity in rabbit aorta assessed as inhibition of KCl-induced contractile response at 100 uM. The following applies: Oryctolagus cuniculus. The experiment is classed as functional.
The species named for a further experiment is Oryctolagus cuniculus. The experiment is described as follows: Vasorelaxant activity in rabbit aorta assessed as inhibition of norepinephrine-induced contractile response at 100 uM. The experiment is classed as functional, tissue-based.

In the case of `COc1cc(O)cc([C@@H]2OC[C@@H]3[C@H]2C(=O)O[C@H]3c2cc(O)c(OC)c(OC)c2)c1` [GRAMINONE B], the inhibition – broadly, the share of the control response that was lost under treatment – at 100 µM in experiment [1] amounted to 50%. In addition, the outcome in the experiment filed under Oryctolagus cuniculus was inactive.

The values above are taken from ChEMBL document CHEMBL1148094, “Graminone B, a novel lignan with vasodilative activity from Imperata cylindrica” (1994).
